Tests used:
[1] = system: MOLM-14 F691L (endogenous FLT3 ITD and transfected FLT3 F691L); assay: MOLM-14 F691L cell proliferation assay (CellTiter-Glo); type: cell-based; conditions: Homo sapiens, MOLM-14, 72 h; 3 d growth, GMean
Excerpt: (§1) The FLT3 inhibitors may be assessed using the MOLM-14, Acute Myeloid Leukemia cell line that endogenously expresses FLT3 ITD or derivatives of the human FLT3 AML cell line which acquired the D835Y (activation loop) of F691L (gatekeeper) mutation after selection in escalating doses of the FLT3 Inhibitor AC220. FLT3 inhibitors may also be assessed using cells that are engineered to express mutant FLT3. For engineered cells, murine Ba/F3 cells were transfected with full-length FLT3 ITD/D835Y mutations. The parental BA/F3 cells are dependent upon Interleukin-3 (IL-3) for survival, and introduction of the FLT3 constructs rendered these cells dependent upon FLT3 kinase activity when cultured in the absences of IL-3. Engineered BA/F3 cell growth assays can be performed in either the […] of IL-3, to assess the compound inhibition of FLT3 or to detect the presence of off-target activity, respectively. Inhibitors of FLT3 kinase activity reduce or eliminate the FLT3 oncogenic signaling, resulting in reduced cell proliferation. This inhibition is measured as a function of compound concentration to assess IC50 values.
(§2) Cell lines used in proliferation assays are as follows in Table 2:
(§3) Cells were seeded at 1×10^4 cells per well of a 96 well cell culture plate in 50 μl of cell culture medium. Compounds were dissolved in DMSO, typically at a concentration of 0.5 mM and were serially diluted 1:3 for a total of eight points and added to the cells to final concentrations of […], 0.0041, 0.0014 and 0.00046 μM in 100 μl cell culture medium (final concentration 0.2% DMSO). […] The cells were incubated at 37° C., 5% CO2 for three days. CellTiter-Glo Buffer (Promega Cell Viability Assay catalog #G7573) and substrate were equilibrated to room temperature, and enzyme/substrate Recombinant Firefly Luciferase/Beetle Luciferin was reconstituted. The cell plates were equilibrated to room temperature for 30 minutes, then lysed by addition of an equivalent volume of the Celltiter-Glo Reagent. The plate was mixed for 10 minutes on a plate shaker to lyse the cells. The plates were read on a Tecan M1000 using Luminescence protocol modified to read 0.1 s per well. The luminescence reading assesses the ATP content, which correlates directly with cell number such that the reading as a function of compound concentration was used to determine the IC50 value.

[2] = system: MOLM-14 D835Y (endogenous FLT3 ITD and transfected FLT3 D835Y); assay: MOLM-14 D835Y cell proliferation assay (CellTiter-Glo); type: cell-based; conditions: Homo sapiens, MOLM-14, 72 h; 3 d growth, GMean
Excerpt: as §1, §2, §3

BA/F3-FLT3-ITD + D835Y = molecular target: T1, BA/F3-FLT3-ITD + D835Y (Homo sapiens, UniProt P36888, D835Y, cells depend on it, form not given); assay: Engineered BA/F3 cell growth assay, FLT3 ITD/D835Y; type: cell-based, murine; conditions: 3 d growth
T1 sequence (P36888 with tags, fused parts or gaps INS600HVDFREYEYD/D835Y): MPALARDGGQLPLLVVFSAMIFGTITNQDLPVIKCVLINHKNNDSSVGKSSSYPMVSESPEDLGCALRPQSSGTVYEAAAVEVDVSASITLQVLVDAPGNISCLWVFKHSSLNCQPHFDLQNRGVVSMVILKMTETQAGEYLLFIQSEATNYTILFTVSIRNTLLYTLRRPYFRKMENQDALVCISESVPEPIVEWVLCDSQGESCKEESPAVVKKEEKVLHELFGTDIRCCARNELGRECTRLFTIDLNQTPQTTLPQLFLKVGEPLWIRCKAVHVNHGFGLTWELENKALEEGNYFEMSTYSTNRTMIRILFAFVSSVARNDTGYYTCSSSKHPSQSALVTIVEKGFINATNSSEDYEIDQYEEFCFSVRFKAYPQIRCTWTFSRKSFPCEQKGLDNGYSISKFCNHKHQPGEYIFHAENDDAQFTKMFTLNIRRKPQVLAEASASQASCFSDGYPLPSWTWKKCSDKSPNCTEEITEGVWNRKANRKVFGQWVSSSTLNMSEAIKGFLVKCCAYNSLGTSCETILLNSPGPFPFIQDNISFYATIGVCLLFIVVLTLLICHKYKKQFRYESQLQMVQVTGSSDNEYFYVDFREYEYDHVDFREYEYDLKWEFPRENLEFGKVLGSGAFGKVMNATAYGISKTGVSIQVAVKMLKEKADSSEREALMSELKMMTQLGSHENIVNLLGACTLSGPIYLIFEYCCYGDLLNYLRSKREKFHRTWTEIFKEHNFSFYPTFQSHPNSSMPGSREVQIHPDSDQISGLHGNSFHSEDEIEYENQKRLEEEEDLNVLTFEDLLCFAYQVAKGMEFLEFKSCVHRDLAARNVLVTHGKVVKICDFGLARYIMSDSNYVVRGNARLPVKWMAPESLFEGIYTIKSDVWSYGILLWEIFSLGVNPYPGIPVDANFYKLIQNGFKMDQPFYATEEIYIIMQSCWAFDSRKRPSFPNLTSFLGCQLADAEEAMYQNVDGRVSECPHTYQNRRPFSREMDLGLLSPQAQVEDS
Excerpt: as §1, §2, §3
The BaF3 assays as developed used to generate the data in Tables 7 and 8 are identical and differ only in minor details in regards to vector design, not biological function. Both introduce the FLT3 gene with MV4-11 based ITD duplications and resistance mutations from an exogenous promoter (MSCV and CMV respectively) in the exact same cell line.
As a result of the expressed FLT3 protein, the IL3 factor dependent BaF3 cell clones become IL3-factor independent.
The compounds in Tables 7 and 8 were tested in an identical fashion by incubating such clones in with increasing concentrations. Inhibition of the FLT3 activity by an inhibitor results in factor dependency, which in the absence of IL3 results in cell death in the three day growth assays.

SMILES	IC50 [1]	IC50 [2]	GI50 (BA/F3-FLT3-ITD + D835Y)
COc1ncc(NC(=O)Cc2ccc(-c3cnc4[nH]c(-c5ccnc(C#N)c5)cc4c3)nc2)cc1C(F)(F)F [Compound P-0006, 2-[6-[2-(2-cyano-4-pyridyl)-1H-pyrrolo[2,3-b]pyridin-5-yl]-3-pyridyl]-N-[6-methoxy-5-(trifluoromethyl)-3-pyridyl]acetamide]	0.0001 to 10 µM	0.0001 to 10 µM	0.0001 to 10 µM
COc1ccc(-c2cc3cc(-c4ccc(CC(=O)Nc5cnc(OC)c(C(F)(F)F)c5)c(F)c4)cnc3[nH]2)cn1 [Compound P-0007, 2-[2-fluoro-4-[2-(6-methoxy-3-pyridyl)-1H-pyrrolo[2,3-b]pyridin-5-yl]phenyl]-N-[6-methoxy-5-(trifluoromethyl)-3-pyridyl]acetamide]	0.0001 to 10 µM	0.0001 to 10 µM	0.0001 to 10 µM
O=C(Cc1ccc(-c2cnc3[nH]c(-c4ccnc(N5CCOCC5)c4)cc3c2)nc1)Nc1ccnc(C(F)(F)F)c1 [Compound P-0069, 2-[6-[2-(2-morpholino-4-pyridyl)-1H-pyrrolo[2,3-b]pyridin-5-yl]-3-pyridyl]-N-[2-(trifluoromethyl)-4-pyridyl]acetamide]	–	0.0001 to 10 µM	0.0001 to 10 µM
COc1cc(-c2cc3cc(-c4ccc(CC(=O)Nc5ccnc(C(F)(F)F)c5)cn4)cnc3[nH]2)ccn1 [Compound P-0186, 2-[6-[2-(2-methoxy-4-pyridyl)-1H-pyrrolo[2,3-b]pyridin-5-yl]-3-pyridyl]-N-[2-(trifluoromethyl)-4-pyridyl]acetamide]	–	0.0001 to 10 µM	0.0001 to 10 µM
N#Cc1cc(-c2cc3cc(-c4cc(F)c(CC(=O)Nc5cc(C(F)(F)F)ccn5)cc4F)cnc3[nH]2)ccn1 [Compound P-0188, 2-[4-[2-(2-cyano-4-pyridyl)-1H-pyrrolo[2,3-b]pyridin-5-yl]-2,5-difluoro-phenyl]-N-[4-(trifluoromethyl)-2-pyridyl]acetamide]	–	0.0001 to 10 µM	0.0001 to 10 µM

Further lines, results first:

IC50 [1]	IC50 [2]	GI50 (BA/F3-FLT3-ITD + D835Y)	SMILES
0.0001 to 10 µM	0.0001 to 10 µM	0.0001 to 10 µM	COc1ncc(NC(=O)Cc2ccc(-c3cnc4[nH]c(C#CC5CC5)cc4c3)cc2)cc1C(F)(F)F [Compound P-0008, 2-[4-[2-(2-cyclopropylethynyl)-1H-pyrrolo[2,3-b]pyridin-5-yl]phenyl]-N-[6-methoxy-5-(trifluoromethyl)-3-pyridyl]acetamide]
0.0001 to 10 µM	0.0001 to 10 µM	0.0001 to 10 µM	COc1cc(-c2cc3cc(-c4ccc(CC(=O)Nc5cnc(OC)c(C(F)(F)F)c5)c(F)c4)cnc3[nH]2)ccn1 [Compound P-0009, 2-[2-fluoro-4-[2-(2-methoxy-4-pyridyl)-1H-pyrrolo[2,3-b]pyridin-5-yl]phenyl]-N-[6-methoxy-5-(trifluoromethyl)-3-pyridyl]acetamide]
–	–	0.0001 to 10 µM	O=C(Cc1ccc(-c2cnc3[nH]c(Cl)cc3c2)cc1F)Nc1ccc(C(F)(F)F)cn1 [Compound P-0041, 2-[4-(2-chloro-1H-pyrrolo[2,3-b]pyridin-5-yl)-2-fluoro-phenyl]-N-[5-(trifluoromethyl)-2-pyridyl]acetamide]
0.0001 to 10 µM	–	0.0001 to 10 µM	Cn1cc(Nc2ncc(-c3ccc(CC(=O)NCc4ccc(Cl)cn4)cc3)cn2)cn1 [Compound P-0114, N-[(5-chloro-2-pyridyl)methyl]-2-[4-[2-[(1-methylpyrazol-4-yl)amino]pyrimidin-5-yl]phenyl]acetamide]
0.0001 to 10 µM	–	0.0001 to 10 µM	N#Cc1ccc(-c2cc3cc(-c4ccc(CC(=O)Nc5ccnc(C(F)(F)F)c5)nc4)cnc3[nH]2)cn1 [Compound P-0184, 2-[5-[2-(6-cyano-3-pyridyl)-1H-pyrrolo[2,3-b]pyridin-5-yl]-2-pyridyl]-N-[2-(trifluoromethyl)-4-pyridyl]acetamide]
–	–	0.0001 to 10 µM	N#Cc1cc(-c2cc3cc(-c4ccc(CC(=O)Nc5ccnc(C(F)(F)F)c5)cn4)cnc3[nH]2)ccn1 [Compound P-0185, 2-[6-[2-(2-cyano-4-pyridyl)-1H-pyrrolo[2,3-b]pyridin-5-yl]-3-pyridyl]-N-[2-(trifluoromethyl)-4-pyridyl]acetamide]

From patent publication US10160747B2, “Compounds and methods for kinase modulation, and indications therefor” (Plexxikon Inc., priority 2016, dated 2018)
